Assay: in vitro
Settings: human, hela cells, % viability

SMILES | viability at 28.5 h, 10 µM [%]
O=C(C[C@@H]1O[C@H](CNCc2cccc(Cl)c2)[C@@H](O)[C@H]1O)N1CCOCC1 [CBK288905] | 77.3
O=C(NC[C@H]1O[C@@H](CC(=O)N2CCCC2)[C@H](O)[C@@H]1O)c1cccc(F)c1 [CBK288908] | 88.3
Cc1ccc(S(=O)(=O)NC[C@H]2O[C@@H](CC(=O)N3CCCC3)[C@H](O)[C@@H]2O)cc1 [CBK288910] | 112
O=C(C[C@@H]1O[C@H](CNS(=O)(=O)c2ccc(Cl)cc2)[C@@H](O)[C@H]1O)N1CCCC1 [CBK288911] | 94.2
O=C(NC[C@H]1O[C@@H](CC(=O)N2CCCC2)[C@H](O)[C@@H]1O)c1ccc(F)c(Cl)c1 [CBK288913] | 90.9
O=C(C[C@@H]1O[C@H](CNCc2cccc(Cl)c2)[C@@H](O)[C@H]1O)N1CCc2ccccc21 [CBK288918] | 89
O=C(NC[C@H]1O[C@@H](CC(=O)N2CCN(c3ccccc3)CC2)[C@H](O)[C@@H]1O)c1ccccc1 [CBK288920] | 108
O=C(NC[C@H]1O[C@@H](CC(=O)N2CCN(c3ccc(F)cc3)CC2)[C@H](O)[C@@H]1O)C1CC1 [CBK288921] | 92.7
O=C(NC[C@H]1O[C@@H](CC(=O)N2CCN(c3ccc(F)cc3)CC2)[C@H](O)[C@@H]1O)c1ccco1 [CBK288922] | 95.4
Cc1ccc(S(=O)(=O)NC[C@H]2O[C@@H](CC(=O)N3CCOCC3)[C@H](O)[C@@H]2O)cc1 [CBK288924] | 87.5
CC1CCN(C(=O)C[C@@H]2O[C@H](CNS(=O)(=O)c3ccccc3)[C@@H](O)[C@H]2O)CC1 [CBK288927] | 89.7
NC(=O)[C@@H]1C[C@@H](O)[C@H](O)[C@H]2[C@@H]1N(c1ccccc1)C(=S)N2Cc1ccc(F)cc1 [CBK288928] | 102
Nc1ncncc1-c1noc([C@@H]2CCCN2C2CCOCC2)n1 [CBK288932] | 90.7
NC(=O)[C@@H]1C[C@@H](O)[C@H](O)[C@H]2[C@@H]1N(c1ccc(Cl)cc1)C(=S)N2CC1CCCCC1 [CBK288933] | 86.8
COc1ccc(CN2C(=S)N(CC3CCCCC3)[C@H]3[C@@H]2[C@H]2OC(=O)[C@@H]3C[C@H]2O)cc1 [CBK288936] | 117
NC(=O)[C@H]1C[C@@H](O)[C@H](O)[C@H]2[C@@H]1S/C(=N\c1ccc(Cl)cc1)N2Cc1ccccc1 [CBK288940] | 94.9
COc1ccc(/N=C2\S[C@H]3[C@H]([C@@H](O)[C@H](O)C[C@@H]3C(N)=O)N2Cc2ccc(F)cc2)cc1 [CBK288942] | 90.5
COc1ccc(/N=C2\S[C@H]3[C@H]([C@@H](O)[C@H](O)C[C@@H]3C(N)=O)N2Cc2cccs2)cc1 [CBK288943] | 88.7
NC(=O)[C@H]1C[C@@H](O)[C@H](O)[C@H]2[C@@H]1S/C(=N\c1ccccc1)N2Cc1cccs1 [CBK288944] | 100
C=CCN(C)C(=O)[C@H]1C[C@@H](O)[C@H](O)[C@@H]2N=C(Nc3ccc(Cl)cc3)S[C@@H]21 [CBK288946] | 87
C=CCN(C)C(=O)[C@H]1C[C@@H](O)[C@H](O)[C@@H]2N=C(Nc3ccc(OC)cc3)S[C@@H]21 [CBK288947] | 97.1
C=CCN(C)C(=O)[C@H]1C[C@@H](O)[C@H](O)[C@@H]2N=C(Nc3cc(C)cc(C)c3)S[C@@H]21 [CBK288948] | 94.2
Cc1cc(C)cc(NC2=N[C@H]3[C@@H](O)[C@H](O)C[C@H](C(=O)N4CCCCC4)[C@H]3S2)c1 [CBK288952] | 90
O=C([C@H]1C[C@@H](O)[C@H](O)[C@@H]2N=C(Nc3ccc4c(c3)OCO4)S[C@@H]21)N1CCCCC1 [CBK288953] | 108

SMILES | viability at 28.5 h, 10 µM [%]
c1ccc2oc(CN3Cc4nc[nH]c4C[C@H]3c3nc(-c4cnccn4)no3)cc2c1 [CBK288954] | 113
CC(=O)Nc1ccc(CN2Cc3nc[nH]c3C[C@H]2c2nc(-c3ccc(F)cc3)no2)cc1 [CBK288956] | 89.7
CC(=O)c1ccc(NC(=O)N2Cc3nc[nH]c3C[C@H]2c2nc(-c3ccc(C)cc3)no2)cc1 [CBK288959] | 83.6
CC(C)NC(=O)N1Cc2nc[nH]c2C[C@H]1c1nc(-c2ccc(OC(F)(F)F)cc2)no1 [CBK288960] | 85.9
Cc1cccc(-c2noc([C@@H]3Cc4[nH]cnc4CN3C(=O)CC(C)(C)CC(=O)O)n2)c1 [CBK288961] | 95.8
Cc1cccc(-c2noc([C@@H]3Cc4[nH]cnc4CN3C(=O)NC(C)C)n2)c1 [CBK288962] | 97.6
N#Cc1ccc(C(=O)N2Cc3nc[nH]c3C[C@H]2c2nc(-c3ccncc3)no2)cc1 [CBK288963] | 117
O=C(c1ccco1)N1Cc2nc[nH]c2C[C@H]1c1nc(-c2ccc3ccccc3c2)no1 [CBK288965] | 108
O=C(Nc1ccc(F)cc1)N1Cc2nc[nH]c2C[C@H]1c1nc(-c2ccc(F)cc2)no1 [CBK288970] | 95
O=C(NCc1ccccc1)[C@@H]1Cc2[nH]cnc2CN1C(=O)C1CCCCC1 [CBK288972] | 113
CC(C)NC(=O)N1Cc2nc[nH]c2C[C@H]1C(=O)NCc1ccco1 [CBK288974] | 92.9
CCNC(=O)N1Cc2nc[nH]c2C[C@H]1C(=O)NCc1ccc(C#N)cc1 [CBK288975] | 96.2
COc1ccc(CN2Cc3nc[nH]c3C[C@H]2C(=O)NCc2ccccc2)c2ccccc12 [CBK288976] | 86.5
O=C([C@@H]1Cc2[nH]cnc2CN1Cc1cc2ccccc2o1)N1CCOCC1 [CBK288977] | 114
CN(Cc1ccccc1)C(=O)[C@@H]1Cc2[nH]cnc2CN1Cc1cc2ccccc2o1 [CBK288978] | 108
O=C(NCc1ccc(C(F)(F)F)cc1)[C@@H]1Cc2[nH]cnc2CN1C1CCOCC1 [CBK288981] | 103
COC(=O)[C@@H]1Cc2ncn(Cc3ccc(OC)cc3)c2CN1C(=O)c1ccc(C#N)cc1 [CBK288982] | 95.4
COC(=O)[C@@H]1Cc2ncn(Cc3ccc(Cl)cc3)c2CN1C(=O)c1ccc(C#N)cc1 [CBK288984] | 94.5
COC(=O)[C@@H]1Cc2ncn(C(C)C)c2CN1S(=O)(=O)c1ccc([N+](=O)[O-])cc1 [CBK288985] | 95.7
COC(=O)[C@@H]1Cc2ncn(C(C)C)c2CN1C(=O)CC(C)(C)C [CBK288988] | 88.9
COC(=O)[C@@H]1Cc2ncn(C(C)C)c2CN1C(=O)c1ccc(F)cc1 [CBK288990] | 80.6
CCCS(=O)(=O)N1Cc2c(ncn2C)C[C@H]1C(=O)OC [CBK288991] | 90.2
COC(=O)[C@@H]1Cc2ncn(C)c2CN1S(=O)(=O)c1cccs1 [CBK288992] | 104
COC(=O)[C@@H]1Cc2ncn(C)c2CN1C(=O)c1ccc(C#N)cc1 [CBK288994] | 76.5

SMILES | viability at 28.5 h, 10 µM [%]
CCCn1cnc2c1CN(C(C)=O)[C@H](C(=O)OC)C2 [CBK288995] | 101
CC(C)NC(=O)N1Cc2nc[nH]c2C[C@H]1c1nc(-c2ccccc2)no1 [CBK288996] | 83
c1ccc2oc(CN3Cc4nc[nH]c4C[C@H]3c3nc(-c4ccc5c(c4)OCO5)no3)cc2c1 [CBK288998] | 81.5
CC(C)NC(=O)N1Cc2nc[nH]c2C[C@H]1c1nc(-c2ccc(F)c(Cl)c2)no1 [CBK288999] | 86.6
O=C1NC[C@@H](CCC(=O)N2CCCC2)N2C[C@@H](NC(=S)Nc3ccccc3)C[C@@H]12 [CBK289004] | 113
N[C@H]1C[C@H]2C(=O)NC[C@@H](CCC(=O)NCc3cccs3)N2C1 [CBK289005] | 86.6
O=C(CC[C@@H]1CNC(=O)[C@@H]2C[C@H](NC(=O)c3ccco3)CN12)Nc1ccccc1 [CBK289007] | 91.1
O=C(CC[C@@H]1CNC(=O)[C@@H]2C[C@H](NC(=O)c3cccc(F)c3)CN12)Nc1ccccc1 [CBK289008] | 83.9
O=C(N[C@H]1C[C@H]2C(=O)NC[C@@H](CCC(=O)N3CCOCC3)N2C1)c1cccs1 [CBK289009] | 92
O=C(N[C@H]1C[C@H]2C(=O)NC[C@@H](CCC(=O)N3CCCCC3)N2C1)c1cccs1 [CBK289010] | 87.9
O=C1NC[C@@H](CCC(=O)N2CCCCC2)N2C[C@@H](NS(=O)(=O)c3ccccc3)C[C@@H]12 [CBK289012] | 92.9
COc1ccc(C(=O)N[C@H]2C[C@H]3C(=O)NC[C@@H](CCC(=O)N4CCN(C)CC4)N3C2)cc1 [CBK289016] | 90.6
C#CCNC(=O)CC[C@H]1CNC(=O)[C@@H]2[C@@H](CCN2Cc2ccc(O)cc2)N1C [CBK289017] | 94
C#CCNC(=O)CC[C@H]1CNC(=O)[C@@H]2[C@@H](CCN2Cc2nc3ccccc3n2C)N1C [CBK289018] | 102
COC(=O)CC[C@H]1CNC(=O)[C@@H]2[C@@H](CCN2S(C)(=O)=O)N1C [CBK289019] | 112
CN1[C@@H](CCC(=O)N2CCc3ccccc32)CNC(=O)[C@@H]2[C@H]1CCN2Cc1ccc(O)cc1 [CBK289021] | 88.9
CN1CCC(N2CC[C@@H]3[C@H]2C(=O)NC[C@H](CCC(=O)NCc2ccc(F)cc2)N3C)CC1 [CBK289022] | 90.6
COc1ccc(CNC(=O)CC[C@H]2CNC(=O)[C@H]3NCC[C@H]3N2C)cc1 [CBK289025] | 87.6
CN1CCC(N2CC[C@@H]3[C@H]2C(=O)NC[C@H](CCC(=O)NCc2ccccc2)N3C)CC1 [CBK289026] | 114
CC(C)N1CC[C@@H]2[C@H]1C(=O)NC[C@H](CCC(=O)NCc1ccccc1)N2C [CBK289027] | 91.7
CN1CC[C@@H]2[C@H]1C(=O)NC[C@H](CCC(=O)NCc1cccs1)N2C [CBK289028] | 115
CN1[C@@H](CCC(=O)Nc2ccccc2)CNC(=O)[C@@H]2[C@H]1CCN2C1CCOCC1 [CBK289029] | 108
CN1[C@@H](CCC(=O)N2CCOCC2)CNC(=O)[C@@H]2[C@H]1CCN2C1CCCCC1 [CBK289032] | 88.9
C#CCNC(=O)CC[C@H]1CNC(=O)[C@@H]2[C@@H](CCN2Cc2ccc(C)cc2)N1C [CBK289036] | 101

Source: publication PMC12040169 (PLOS Biology, 2025)
